Assay [1] has as its system T1, Hxt2.
T1 construct: full-length HXT2 expressed from ADH1 promoter on multicopy plasmid Hxt2mnx-pVT (pVT102-U) in S. cerevisiae EBY.S7 (all 18 hexose transporter genes deleted; HXT2m strain)
Kind of assay: initial 2DG uptake ([…] s, zero-trans), bioluminescent 2DG6P assay in HXT2m cells. The assay is classed as cell-based, Saccharomyces cerevisiae. The following applies: no alcohol, 0–4 mM 2DG, pH 7.4, 25 °C, zero-trans influx.

In assay [2] the test system is T1, Hxt2. The description is as above. The assay is classed as cell-based, Saccharomyces cerevisiae. The conditions noted are these: 1 mM 2DG, pH 7.4, 25 °C, 30 min preincubation, authors: nonspecific action via membrane lipid, not specific binding.

SMILES strings stand for the structures.

Usually Km stands for the concentration of substrate that gives half-maximal velocity. `OC[C@H]1OC(O)C[C@@H](O)[C@@H]1O` (stereo partly drawn) [2DG, 2-deoxyglucose]: the Km in assay [1] lay in the range of 800 to 900 µM.

A word on the IC50: it is the midpoint of a concentration-inhibition curve. Turning to `CCCCCCO` [C6, 1-hexanol], the IC50 in assay [2] (noncompetitive) worked out at 15.2 mM.

The molecule `CCCCCCCCO` [C8, 1-octanol] yielded an IC50 in assay [2] of 3.6 mM.

The record behind these values is article doi:10.1101/2025.11.20.689647v1, “Alcohols inhibit glucose transporters noncompetitively at a constant membrane concentration according to lipid theory” (biorxiv, 2025).
